From PubChem BioAssay (NCI) come the findings set out here.

For orientation: TGI means the concentration giving total growth inhibition. Read a low TGI as more potent growth arrest.

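Each compound was tested at five concentrations against cells in 96-well plates for 48 hours. TGI denotes the concentration required for complete inhibition of growth.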

Some test systems named below: SK-OV-3 ovarian; LOX IMVI melanoma; SN12C renal; HOP-62 NSCLC; SK-MEL-5 melanoma; NCI-H23 lung; SR leukemia; M14 melanoma; A498 renal; HS 578T breast; UO-31 renal; SNB-75 CNS; MALME-3M melanoma; CCRF-CEM leukemia; EKVX NSCLC; PC-3 prostate; NCI-H522 lung; MOLT-4 leukemia.
What all share (assay): DTP human tumour cell line panel, 48 h

Turning to `C=C1C(=O)OC2/C=C(\CO)C3OC3C3OC3(C)CC(OC(=O)/C(=C/C)CO)C12` (stereo not drawn), the concentration for total growth inhibition (TGI) in the test with SK-OV-3 ovarian, with LOX IMVI melanoma, with SN12C renal, in the test on HOP-62 NSCLC, in the test with SK-MEL-5 melanoma and with NCI-H23 lung was more than 100 µM in each case. Further, the concentration for total growth inhibition (TGI) is 89 µM with SR leukemia; more than 100 µM with M14 melanoma; more than 100 µM in the test with A498 renal; more than 100 µM in the test on HS 578T breast; more than 100 µM in the test on UO-31 renal; more than 100 µM in the test on SNB-75 CNS. Besides, the total growth inhibition concentration (TGI) is 68.6 µM with MALME-3M melanoma; more than 100 µM with CCRF-CEM leukemia; more than 100 µM with EKVX NSCLC; more than 100 µM with PC-3 prostate; 45.6 µM in the test with NCI-H522 lung; 84.3 µM in the test on MOLT-4 leukemia.

For `CCOC(=O)C(SCCO)C(C(=O)OCC)n1cnc2c(N)ncnc21` (stereo not drawn), the total growth inhibition concentration (TGI) in the test on SK-OV-3 ovarian is more than 100 µM; in the test on LOX IMVI melanoma, 15.1 µM; with SN12C renal, 25.6 µM; in the test with HOP-62 NSCLC it was 45.4 µM; with SK-MEL-5 melanoma, more than 58 µM; in the test on NCI-H23 lung, 31.2 µM. Further, the total growth inhibition concentration (TGI) with SR leukemia turned out to be 14.5 µM; in the test with M14 melanoma, 9.83 µM; in the test with A498 renal, 19.2 µM; with HS 578T breast, 59.2 µM; in the test with UO-31 renal, 55.1 µM; in the test with SNB-75 CNS, 24.7 µM. Besides, the TGI with MALME-3M melanoma came out at 23.8 µM; in the test with CCRF-CEM leukemia it was 6.39 µM; with EKVX NSCLC, 38.1 µM; in the test with PC-3 prostate, 14.7 µM; in the test on NCI-H522 lung it was 19.1 µM; in the test on MOLT-4 leukemia it was 20 µM.

As to `CC(=O)C(=[N+]=[N-])C(=O)NCC#N`, the concentration for total growth inhibition (TGI) with SK-OV-3 ovarian, in the test with LOX IMVI melanoma, with SN12C renal, with HOP-62 NSCLC, in the test with SK-MEL-5 melanoma and in the test with NCI-H23 lung was more than 10 µM each time. Also, the TGI in the test with SR leukemia, with M14 melanoma, with A498 renal, in the test on HS 578T breast, with UO-31 renal and with SNB-75 CNS was more than 10 µM throughout. Further, the TGI with MALME-3M melanoma, in the test with CCRF-CEM leukemia, with EKVX NSCLC, with PC-3 prostate, with NCI-H522 lung and in the test on MOLT-4 leukemia was more than 10 µM each time.

For `CCC(Sc1cc(Cl)c(C)cc1S(=O)(=O)Nc1nc(N)nc(N(C)C)n1)C(=O)O` (stereo not drawn), the TGI in the test with SK-OV-3 ovarian, in the test with LOX IMVI melanoma, with SN12C renal, with HOP-62 NSCLC, with SK-MEL-5 melanoma and in the test on NCI-H23 lung was more than 10 µM each time. The total growth inhibition concentration (TGI) in the test with SR leukemia, in the test with M14 melanoma, in the test with A498 renal, in the test on HS 578T breast, with UO-31 renal and in the test with SNB-75 CNS was more than 10 µM each time. For the same compound, the TGI with MALME-3M melanoma, in the test on CCRF-CEM leukemia, in the test with EKVX NSCLC, with PC-3 prostate, with NCI-H522 lung and with MOLT-4 leukemia was more than 10 µM throughout.

In the case of `O=C(c1ccccc1)c1ccc2nc3n(c2c1)C(c1c(F)cccc1F)SC3` (stereo not drawn), the TGI is 26.7 µM in the test on SK-OV-3 ovarian; 36.6 µM in the test with LOX IMVI melanoma; 34.8 µM in the test with SN12C renal; 52.2 µM in the test with HOP-62 NSCLC; 18.1 µM in the test with SK-MEL-5 melanoma; more than 61.7 µM in the test on NCI-H23 lung. Moreover, the TGI with SR leukemia is 9.4 µM; in the test with M14 melanoma, 15.4 µM; in the test on A498 renal, 13.5 µM; with HS 578T breast, more than 81 µM; in the test on UO-31 renal, 56.5 µM; in the test on SNB-75 CNS, 29.4 µM. The TGI is 46.7 µM with MALME-3M melanoma; 37.6 µM with CCRF-CEM leukemia; more than 48.4 µM with EKVX NSCLC; more than 80.7 µM in the test on PC-3 prostate; 6.14 µM in the test with NCI-H522 lung; 27.6 µM with MOLT-4 leukemia.

Take `O=c1[nH]c(C23CC4CC(CC(C4)C2)C3)cc2c1c(=O)oc1ccccc12`: the total growth inhibition concentration (TGI) is 11 µM in the test on SK-OV-3 ovarian; 11.6 µM with LOX IMVI melanoma; 38.5 µM in the test with SN12C renal; 9.56 µM with HOP-62 NSCLC; 18.3 µM in the test with SK-MEL-5 melanoma; 23 µM with NCI-H23 lung. Moreover, the TGI was 9.31 µM in the test with SR leukemia; 39.6 µM with M14 melanoma; 5.11 µM with A498 renal; more than 20.3 µM with HS 578T breast; 4.23 µM with UO-31 renal; 9.52 µM in the test on SNB-75 CNS. Also, the concentration for total growth inhibition (TGI) was 13.7 µM in the test with MALME-3M melanoma; 42.7 µM in the test with CCRF-CEM leukemia; 3.99 µM in the test with EKVX NSCLC; 10.5 µM in the test with PC-3 prostate; 11.1 µM in the test on NCI-H522 lung; more than 100 µM with MOLT-4 leukemia.

For the compound `CCOC(=O)C1=CN/C(=C(/C)C(=O)OC)SC1C(=O)OCC` (stereo not drawn), the TGI with SK-OV-3 ovarian, with LOX IMVI melanoma, in the test on SN12C renal, in the test with HOP-62 NSCLC, in the test with SK-MEL-5 melanoma and in the test with NCI-H23 lung was more than 100 µM each time. The TGI in the test on SR leukemia, in the test with M14 melanoma, in the test with A498 renal, with HS 578T breast, in the test on UO-31 renal and in the test with SNB-75 CNS was more than 100 µM each time. In addition, the total growth inhibition concentration (TGI) with MALME-3M melanoma, in the test with CCRF-CEM leukemia, in the test on EKVX NSCLC, in the test on PC-3 prostate, in the test with NCI-H522 lung and in the test on MOLT-4 leukemia was more than 100 µM in each case.

Consider `COc1ccc(OC)c2sc(N3C(=O)/C(=C/c4ccc(Cl)cc4)N=C3c3ccccc3)nc12`, for which the TGI in the test on SK-OV-3 ovarian, in the test with LOX IMVI melanoma, in the test on SN12C renal, in the test on HOP-62 NSCLC, with SK-MEL-5 melanoma and in the test with NCI-H23 lung was more than 100 µM throughout. The TGI in the test on SR leukemia, with M14 melanoma, in the test on A498 renal, in the test on HS 578T breast, in the test with UO-31 renal and with SNB-75 CNS was more than 100 µM in each case. The TGI in the test on MALME-3M melanoma is more than 100 µM; with CCRF-CEM leukemia, more than 100 µM; in the test on EKVX NSCLC, more than 100 µM; in the test on PC-3 prostate it was more than 100 µM; in the test on NCI-H522 lung it was more than 100 µM; in the test on MOLT-4 leukemia, 66.8 µM.

As to `CCN(CC)c1cc2c3c(c1)CCCN3CCC2`, the TGI in the test on SK-OV-3 ovarian, in the test with LOX IMVI melanoma, in the test on SN12C renal, in the test on HOP-62 NSCLC, in the test on SK-MEL-5 melanoma and in the test on NCI-H23 lung was more than 10 µM throughout. The TGI with SR leukemia, with M14 melanoma, in the test on A498 renal, with HS 578T breast, with UO-31 renal and in the test with SNB-75 CNS was more than 10 µM each time. The TGI in the test on MALME-3M melanoma, with CCRF-CEM leukemia, in the test with EKVX NSCLC, in the test on PC-3 prostate, in the test on NCI-H522 lung and in the test with MOLT-4 leukemia was more than 10 µM throughout.

Consider `OC1(CCc2ccccc2)COC(C(F)(F)F)(C(F)(F)F)C1` (stereo not drawn), for which the TGI in the test with SK-OV-3 ovarian, with LOX IMVI melanoma, with SN12C renal, with HOP-62 NSCLC, with SK-MEL-5 melanoma and with NCI-H23 lung was more than 100 µM throughout. In addition, the TGI in the test on SR leukemia, in the test on M14 melanoma, in the test on A498 renal, with HS 578T breast, with UO-31 renal and in the test with SNB-75 CNS was more than 100 µM throughout. Further, the TGI with MALME-3M melanoma, in the test on CCRF-CEM leukemia, in the test on EKVX NSCLC, with PC-3 prostate, in the test with NCI-H522 lung and with MOLT-4 leukemia was more than 100 µM in each case.

With `O=C1NC(=O)C(Cc2ccccc2)(c2cccnc2)N1` (stereo not drawn), the TGI with SK-OV-3 ovarian, in the test on LOX IMVI melanoma, with SN12C renal, in the test on HOP-62 NSCLC, in the test with SK-MEL-5 melanoma and with NCI-H23 lung was more than 100 µM in each case. For the same compound, the TGI with SR leukemia, in the test with M14 melanoma, with A498 renal, in the test on HS 578T breast, with UO-31 renal and in the test with SNB-75 CNS was more than 100 µM in each case. Moreover, the total growth inhibition concentration (TGI) in the test on MALME-3M melanoma, with CCRF-CEM leukemia, in the test with EKVX NSCLC, with PC-3 prostate, in the test with NCI-H522 lung and in the test with MOLT-4 leukemia was more than 100 µM throughout.
